Test results as given in patent US8614313B2, “Pharmaceutical compositions comprising forms of 5-azacytidine” (Pharmion LLC, priority 2003, dated 2013).

What was measured:
Format in all cases: physicochemical
[1] = Polymorphic form conversion: Form I slurried in various solvents, recovered solid analyzed using XRPD
From the text: (§1) X-ray powder diffraction patterns for each sample were obtained on a Scintag XDS 2000 or a Scintag X2 θ/θ diffractometer operating with copper radiation at 45 kV and 40 mA using a Kevex Psi Peltier-cooled silicon detector or a Thermo ARL Peltier-cooled solid state detector. Source slits of 2 or 4 mm and detector slits of 0.5 or 0.3 mm were used for data collection. Recrystallized material was gently milled using an agate mortar and pestle for approximately one minute. Samples were placed in a stainless steel or silicon sample holder and leveled using a glass microscope slide. Powder diffraction patterns of the samples were obtained from 2 to 42° 2θ at 1°/minute. Calibration of the X2 diffractometer is verified annually using a silicon powder standard.
Form I of 5-azacytidine was added to various solvents in sufficient quantities to form a slurry, and the slurry allowed to equilibrate for a period of time. The solid material that was present in the slurry was recovered, dried, and analyzed using XRPD (according to the XRPD protocol included in Example 5) with the aim of detecting new polymorphs and pseudopolymorphs during the transition to the dissolved state.

[2] = Polymorphic form conversion of other forms slurried in water, solid analyzed using XRPD; conditions: approximate 25 mg/mL, equilibrated 15 minutes
From the text: as §1

[3] = Dehydration of Form III by heating; TGA water content and XRPD
From the text: as §1
Thermogravimetric Analysis (TGA) measurements for each sample were collected using a Perkin Elmer TGA 7 purged with nitrogen at approximately 20 cc/minute. A 100-mg standard weight and nickel metal were used to verify balance and temperature calibrations, respectively. Samples were heated from 25° C. to 250° C. or 300° C. at 10° C./minute.
5-azacytidine Form III was heated at 105° C. for 4 hours in an attempt to dehydrate the material. […] TGA was used to measure the water content of Form III before and after drying.

## Nc1ncn([C@@H]2O[C@H](CO)[C@@H](O)[C@H]2O)c(=O)n1 [Form I, 5-azacytidine]
[1]; slurry equilibrated 19 hours in 5% Dextrose
  XRPD Pattern Assignment: Form III
[1]; slurry equilibrated 19 hours in 5% Tween 80
  XRPD Pattern Assignment: Form III
[1]; slurry equilibrated 19 hours in 50/50 EtOH/DI Water
  XRPD Pattern Assignment: Form III
[1]; slurry equilibrated 19 hours in Acetone
  XRPD Pattern Assignment: Form I
[1]; slurry equilibrated 19 hours in DI Water
  XRPD Pattern Assignment: Form III
[1]; slurry equilibrated 19 hours in DMSO
  XRPD Pattern Assignment: Amorphous
[1]; slurry equilibrated 19 hours in Ethyl alcohol
  XRPD Pattern Assignment: Form I
[1]; slurry equilibrated 19 hours in Methyl ethyl ketone
  XRPD Pattern Assignment: Form I
[1]; slurry equilibrated 19 hours in Normal Saline
  XRPD Pattern Assignment: Form III
[1]; slurry equilibrated 19 hours in Polyethylene glycol
  XRPD Pattern Assignment: Amorphous
[1]; slurry equilibrated 19 hours in Propylene glycol
  XRPD Pattern Assignment: Amorphous
[1]; slurry equilibrated 19 hours in Water-saturated Octanol
  XRPD Pattern Assignment: Form III

## Nc1ncn([C@@H]2O[C@H](CO)[C@@H](O)[C@H]2O)c(=O)n1 [Form I/II mixed phase, 5-azacytidine]
[2]
  form observed by XRPD after slurry in water: Form III

## Nc1ncn([C@@H]2O[C@H](CO)[C@@H](O)[C@H]2O)c(=O)n1 [Form III, 5-azacytidine]
[3]; after drying at 105° C. for 4 hours
  amount of moisture (TGA): < 0.1%
[3]; heated at 105° C. for 4 hours
  XRPD powder pattern after dehydration: matches that of Form I
[3]; initial, before drying
  amount of moisture (TGA): 6.31%
